Patent publication US7267715B2, “Ink and ink set” (Fujifilm Corporation, priority 2003, dated 2007)

Experiment: Oxidation potential by cyclic voltammetry
Format: physicochemical
Details: test method of the specification (dimethylformamide, tetrapropylammonium perchlorate)
Method: More specifically, a test sample is dissolved to a concentration of 1×10^−6 to 1×10^−4 mol/liter in a solvent such as dimethylformamide or acetonitrile containing a supporting electrolyte such as sodium perchlorate or tetrapropylammonium perchlorate and the oxidation potential is measured as a value to SCE (saturated calomel electrode) using a cyclic voltammetry. This value sometimes deviates on the order of tens of millivolt due to the effect of liquid junction potential, liquid resistance of sample solution, or the like, however, the reproducibility of potential can be guaranteed by adding a standard sample (for example, hydroquinone). In order to univocally specify the potential, in the present invention, the value (SCE standard) measured in a dimethylformamide (concentration of dye: 0.001·moldm^−3) containing 0.1 mol·dm^−3 of tetrapropylammonium perchlorate as the supporting electrolyte is used as the oxidation potential of the dye. In the case of a water-soluble dye, the dye is sometimes hardly dissolved directly in N,N-dimethylformamide. In such a case, the oxidation potential is measured after dissolving the dye by using water in a small amount as much as possible and then diluting it with N,N-dimethylformamide to have a water content of 2% or less.

oxidation potential	Structure (SMILES)
1.32 V (vs SCE)	Cc1c(C#N)c(Nc2ccc(S(=O)(=O)[O-])cc2)nc(Nc2ccc(S(=O)(=O)[O-])cc2)c1N=Nc1sc(N=Nc2cc(C(=O)[O-])cc(C(=O)[O-])c2)cc1C#N.[Li+].[Li+].[Li+].[Li+] [BK-4]
1.29 V (vs SCE)	Cc1cc(C)c(S(=O)(=O)[O-])c(C)c1Nc1nc(N(c2nc3ccc(S(=O)(=O)[O-])cc3s2)c2c(C)cc(C)c(S(=O)(=O)O)c2C)ccc1/N=N/c1c(C#N)c(C(C)(C)C)nn1-c1nc2ccc(S(=O)(=O)[O-])cc2s1.[K+].[K+].[Na+] [M-3]
1.25 V (vs SCE)	CC(C)(C)c1nn(-c2nc(Nc3cc(C(=O)[O-])cc(C(=O)[O-])c3)nc(Nc3cc(C(=O)[O-])cc(C(=O)[O-])c3)n2)c(N)c1/N=N/c1ncns1.[Na+].[Na+].[Na+].[Na+] [Y-2]
1.22 V (vs SCE)	CC(C)CSc1nnc(/N=N/c2c(C(C)(C)C)nn(-c3nc(Nc4cc(C(=O)[O-])cc(C(=O)[O-])c4)nc(Nc4cc(C(=O)[O-])cc(C(=O)[O-])c4)n3)c2N)s1.[K+].[K+].[K+].[K+] [Y-3]
